Experimental data reported in patent US10597388B2, “Pyridazinone herbicides” (FMC CORPORATION, priority 2014, dated 2020).

Key:
Experiment in all cases: Test C greenhouse herbicide test, pre- and postemergence
Format in all cases: in vivo
[1] = test system: barnyardgrass (Echinochloa crus-galli)
Outline: (§1)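 Each species was treated both before emergence, in a loam–sand soil mix, and after emergence, as 1- to 4-leaf seedlings in peat-based potting medium. Plants stayed in the greenhouse 13 to 15 d, then were scored from 0 (no effect) to 100 (complete control) relative to controls.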

[2] = test system: blackgrass (Alopecurus myosuroides)
Outline: as §1

[3] = test system: corn (Zea mays)
Outline: as §1

[4] = test system: crabgrass, large (large crabgrass, Digitaria sanguinalis)
Outline: as §1

[5] = test system: foxtail, giant (giant foxtail, Setaria faberii)
Outline: as §1

[6] = test system: galium (catchweed bedstraw, Galium aparine)
Outline: as §1

[7] = test system: johnsongrass (Sorghum halepense)
Outline: as §1

[8] = test system: lambsquarters (Chenopodium album)
Outline: as §1

[9] = test system: morningglory (Ipomoea coccinea)
Outline: as §1

[10] = test system: nutsedge, yellow (yellow nutsedge, Cyperus esculentus)
Outline: as §1

[11] = test system: oilseed rape (Brassica napus)
Outline: as §1

[12] = test system: pigweed (Amaranthus retroflexus)
Outline: as §1

[13] = test system: ragweed (common ragweed, Ambrosia elatior)
Outline: as §1

[14] = test system: ryegrass, Italian (Italian ryegrass, Lolium multiflorum)
Outline: as §1

[15] = test system: velvetleaf (Abutilon theophrasti)
Outline: as §1

[16] = test system: waterhemp (common waterhemp, Amaranthus rudis)
Outline: as §1

[17] = Postemergence, 31 g ai/ha, 0 to 100 scale (0 no effect, 100 complete control)
[18] = Postemergence, 125 g ai/ha, scale 0 to 100, 0 is no effect, 100 is complete control
[19] = Postemergence, 250 g ai/ha, scale 0 to 100, 0 no effect, 100 complete control, 13 to 15 d
[20] = Preemergence, 31 g ai/ha, scale 0 to 100, 0 is no effect, 100 is complete control
[21] = Preemergence, 62 g ai/ha, scale 0 to 100, 0 is no effect, 100 is complete control
[22] = Preemergence, 125 g ai/ha, scale 0 to 100, 0 is no effect, 100 is complete control
[23] = Preemergence, 250 g ai/ha, scale 0 to 100 (0 no effect, 100 complete control)
[24] = postemergence, 62 g ai/ha, scale 0 to 100, 0 no effect, 100 complete control

COC(=O)Oc1c(C)nn(C)c(=O)c1-c1c(C)sc2c(C)cc(C)cc12 [Compound 81]
70: Plant response rating, Barnyardgrass [1, 21] | Plant response rating, Johnsongrass [7, 19] | Plant response rating, Nutsedge, Yellow [10, 21] | Plant response rating, Ragweed [13, 18]
80: Plant response rating, Barnyardgrass [1, 22] | Plant response rating, Blackgrass [2, 21] | Plant response rating, Foxtail, Giant [5, 20] | Plant response rating, Morningglory [9, 20] | Plant response rating, Nutsedge, Yellow [10, 22] | Plant response rating, Ryegrass, Italian [14, 20] | Plant response rating, Waterhemp [16, 19]
35: Plant response rating, Barnyardgrass [1, 18] | Barnyardgrass plant response rating [1, 24] | Crabgrass, Large plant response rating [4, 24] | Plant response rating, Velvetleaf [15, 20]
95: Plant response rating, Galium [6, 18] | Plant response rating, Galium [6, 19] | Plant response rating, Galium [6, 21] | Plant response rating, Galium [6, 22] | Galium plant response rating [6, 23] | Galium plant response rating [6, 24] | Lambsquarters plant response rating [8, 23] | Lambsquarters plant response rating [8, 24] | Morningglory plant response rating [9, 23] | Nutsedge, Yellow plant response rating [10, 23] | Oilseed Rape plant response rating [11, 23] | Plant response rating, Pigweed [12, 21] | Plant response rating, Pigweed [12, 22] | Plant response rating, Ragweed [13, 21] | Plant response rating, Ragweed [13, 22]
40: Plant response rating, Crabgrass, Large [4, 18] | Plant response rating, Oilseed Rape [11, 22]
75: Plant response rating, Crabgrass, Large [4, 21] | Plant response rating, Lambsquarters [8, 20] | Ragweed plant response rating [13, 24]
65: Oilseed Rape plant response rating [11, 24] | Plant response rating, Velvetleaf [15, 21]
30: Plant response rating, Barnyardgrass [1, 20] | Corn plant response rating [3, 23]
90: Plant response rating, Blackgrass [2, 18] | Plant response rating, Blackgrass [2, 19] | Plant response rating, Blackgrass [2, 22] | Blackgrass plant response rating [2, 23] | Plant response rating, Crabgrass, Large [4, 20] | Plant response rating, Crabgrass, Large [4, 22] | Plant response rating, Foxtail, Giant [5, 18] | Plant response rating, Foxtail, Giant [5, 19] | Plant response rating, Galium [6, 20] | Plant response rating, Lambsquarters [8, 21] | Plant response rating, Morningglory [9, 22] | Plant response rating, Nutsedge, Yellow [10, 18] | Plant response rating, Nutsedge, Yellow [10, 19] | Plant response rating, Pigweed [12, 19] | Plant response rating, Ryegrass, Italian [14, 18] | Plant response rating, Ryegrass, Italian [14, 19] | Plant response rating, Ryegrass, Italian [14, 21] | Plant response rating, Ryegrass, Italian [14, 22] | Ryegrass, Italian plant response rating [14, 23] | Plant response rating, Velvetleaf [15, 18] | Plant response rating, Velvetleaf [15, 19] | Plant response rating, Waterhemp [16, 22]
0: Corn plant response rating [3, 17] | Plant response rating, Corn [3, 19] | Plant response rating, Corn [3, 20] | Plant response rating, Oilseed Rape [11, 20]
25: Barnyardgrass plant response rating [1, 17] | Plant response rating, Johnsongrass [7, 20]
60: Plant response rating, Barnyardgrass [1, 19] | Blackgrass plant response rating [2, 17] | Plant response rating, Blackgrass [2, 20] | Plant response rating, Nutsedge, Yellow [10, 20] | Waterhemp plant response rating [16, 24]
20: Plant response rating, Corn [3, 22]
55: Plant response rating, Crabgrass, Large [4, 19]
85: Blackgrass plant response rating [2, 24] | Foxtail, Giant plant response rating [5, 24] | Plant response rating, Lambsquarters [8, 22] | Plant response rating, Morningglory [9, 21] | Nutsedge, Yellow plant response rating [10, 24] | Plant response rating, Oilseed Rape [11, 18] | Plant response rating, Pigweed [12, 18] | Pigweed plant response rating [12, 24] | Plant response rating, Ragweed [13, 19] | Plant response rating, Ragweed [13, 20] | Ryegrass, Italian plant response rating [14, 24] | Plant response rating, Velvetleaf [15, 22] | Velvetleaf plant response rating [15, 24] | Plant response rating, Waterhemp [16, 18] | Plant response rating, Waterhemp [16, 20] | Plant response rating, Waterhemp [16, 21]
98: Barnyardgrass plant response rating [1, 23] | Crabgrass, Large plant response rating [4, 23] | Plant response rating, Foxtail, Giant [5, 21] | Plant response rating, Foxtail, Giant [5, 22] | Johnsongrass plant response rating [7, 23] | Plant response rating, Lambsquarters [8, 18] | Plant response rating, Morningglory [9, 19] | Plant response rating, Pigweed [12, 20] | Ragweed plant response rating [13, 23] | Velvetleaf plant response rating [15, 23]
45: Plant response rating, Johnsongrass [7, 22] | Plant response rating, Oilseed Rape [11, 19]
10: Plant response rating, Corn [3, 18] | Plant response rating, Corn [3, 21]
5: Corn plant response rating [3, 24] | Plant response rating, Johnsongrass [7, 18] | Plant response rating, Johnsongrass [7, 21] | Johnsongrass plant response rating [7, 24] | Plant response rating, Oilseed Rape [11, 21]
100: Foxtail, Giant plant response rating [5, 23] | Plant response rating, Lambsquarters [8, 19] | Plant response rating, Morningglory [9, 18] | Morningglory plant response rating [9, 24] | Pigweed plant response rating [12, 23] | Waterhemp plant response rating [16, 23]
